How the values were obtained:
[1] = test system: TXB2 production; assay: Measurement of plasma TXB2 levels by EIA in platelet-rich plasma; format: cell-based; settings: Homo sapiens, Platelet
Protocol: Thromboxane B2 (TXB2), a stable TXA2 metabolite, is widely used as a prognostic risk marker of platelet activation in cardiovascular disease, which is closely related to COX-1 and Thromboxane Synthetase activity. Thus, the plasma levels of this metabolite were measured using an enzyme immunoassay (EIA) as described in the Experimental Section.
Plasma samples containing 100 μM of each thiourea with antiplatelet activity were used to determine the concentrations of thromboxane B2, an index of in vitro COX-1 activity. Briefly, 10 μL of arachidonic acid (500 μM) were added to platelet-rich plasma samples containing each active derivative (100 μM) under stir conditions. After five minutes the suspensions were mixed with 3 μL Indomethacin (10 mM) stop-solution. By sonication for 15 min, platelets were disrupted, and the resulting homogenates were centrifuged at 2000 g for 10 min to allow complete release of TXB2. Plasma levels of TXB2 were measured in duplicate by competitive immunoassay using commercially available kits from EIA Cayman (TXB2 EIA Kit, Cayman Chemical Co, Ann Arbor, MI, USA) according to the manufacturer’s instructions. A threshold of 25.75 ng/mL was defined as control plasma levels of TXB2 after platelet disrupture.

[2] = Hemolysis assay (erythrocyte lysis); format: cell-based, human; settings: human, erythrocyte suspension, pH 7.4; 3 h incubation; derivatives and ASA at 100 μM, TRITON at 1%
Protocol: Healthy erythrocytes were washed three times with PBS (pH 7.4) by centrifugation and suspended in the same buffer. All derivatives were incubated with the erythrocyte suspension for 3 h at 37 °C. The release of hemoglobin was determined by monitoring the optical density of the supernatant at 540 nm. The experiments were performed in triplicate and complete hemolysis (positive control) was determined using 1% Triton X-100. Hemolysis less than 10% indicated good hemocompatibility and non-toxicity of the molecules tested.

[3] = test system: Salmonella typhimurium; assay: Reverse mutagenesis to histidine prototrophy (Ames test), spot test; settings: without metabolic activation; 10 µM, 100 µM and 500 µM
Protocol: This assay was performed as described by Maron and Ames, using the histidine Salmonella typhimurium auxotroph mutant strains TA97, TA98, TA100 and the […] TA102 (Table 5).

[4] = test system: Escherichia coli; assay: SOS chromotest, spot test; format: cell-based
Protocol: The SOS chromotest (spot test) was performed according to Quillardet and Hofnung, using Escherichia coli (Table 6) strains PQ35 and PQ37. One hundred microliters of an overnight culture of the E. coli strains are diluted in 5 mL of LB medium and the culture is incubated at 37 °C in a gyratory incubator up to a concentration of 2 × 10^8 bacteria/mL. Fractions of 0.1 mL of the culture are then distributed into test tube with top agar, and the mixture is poured immediately on M63 medium plate. A sample of 10 µL of the thiourea derivatives is spotted onto the center of the plate. After overnight incubation at 37 °C, the presence of a blue ring around a zone of inhibition indicates genotoxic activity.

[5] = test system: PGE2 production; assay: Measurement of plasma PGE2 levels by EIA in platelet-rich plasma; format: cell-based; settings: human platelet-rich plasma
Protocol: The stable direct metabolite of PGE2, 13,14-dihydro-15-keto-Prostaglandin E2, is a known marker of the COX-1 activity. By the measurement of total levels of this PGE2 metabolite in human platelet-rich plasma, we evaluated the feasibility of antiplatelet N,N'-disubstituted thioureas to inhibit COX-1 activity in healthy platelets (Table 2).
Plasma samples containing 100 μM of each thiourea with antiplatelet activity were used to determine the concentrations of […], an index of in vitro COX-1 activity. Briefly, ozagrel (3 μL, 100 μM) were added to stop TXS activity and the aggregation were triggered with 10 μL of arachidonic acid (500 μM) in PRP samples containing each active derivative (100 μM) under stir conditions. After five minutes the suspensions were mixed with indomethacin (3 μL, 10 mM) stop-solution. By sonication for 1 min, platelets were disrupted and purification step were performed according to the manufacturer’s instructions (Cayman Chemical Co.). Plasma levels of PGE2 were measured in duplicate by competitive immunoassay using commercially available kits for EIA (PGE2 EIA Kit, Cayman Chemical Co.) according to the manufacturer’s instructions. A threshold of 25.75 ng/mL was defined as control plasma levels of PGE2 after platelet disrupture.

In the case of `CC(=O)Oc1ccccc1C(=O)O` [Aspirin, acetylsalicylic acid, reference compound], the inhibition at 100 µM [1] is reported as 78.5 ± 5%, the hemolysis at 3 h, 100 µM [2] is reported as 2% and the “Ames Test S. typhimurium TA97” value [3] is reported as “-”. For the same compound, the “Ames Test S. typhimurium TA98” value [3] was “-”, the “Ames Test S. typhimurium TA100” value [3] was “-” and the “Ames Test S. typhimurium TA102” value [3] was “-”. The “SOS Chromotest E. coli PQ35” value [4] was “-” and the inhibition at 100 µM [5] was 47.5 ± 1.4%.
